# According to the supplement of paper PMC10307832:
# Assays:
# Experiment in all cases: relative viability (nuclei count vs DMSO), 5 days (fraction); higher = more cells survive
# kb NB 142-70 + OSI-027 = compound: C1CSC2=C(C(=O)N1)SC3=C2C=C(C=C3)O [kb NB 142-70] + COc1cccc2cc(-c3nc([C@H]4CC[C@H](C(=O)O)CC4)n4ncnc(N)c34)[nH]c12 [OSI-027] (partner 0.5 µM)
# Method in brief: (§1)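 Lung cancer cell lines were seeded in 1536-well plates and dosed by pin tool the next day, with either a single drug or a fixed anchor-drug dose combined with five library-drug doses (not always all listed) spaced in √10 steps. Five days later, one step fixed the cells and stained their nuclei (final 0.05% Triton X-100, 1% formaldehyde, 1 ug/ml Hoechst), and nuclei were counted on 4× images. Relative viability is the nuclei count in treated wells divided by the count in vehicle wells, and each value is the median of duplicate plates.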
# [1] = compound: NCC(=O)Nc1ccc(-n2nc(C(F)(F)F)cc2-c2ccc3c(ccc4ccccc43)c2)cc1 + CC1(C)CCC(c2ccc(Cl)cc2)=C(CN2CCN(c3ccc(C(=O)NS(=O)(=O)c4ccc(N[C@H](CCN5CCOCC5)CSc5ccccc5)c(S(=O)(=O)C(F)(F)F)c4)cc3)CC2)C1 [Navitoclax] (partner 0.5 µM)
# Method in brief: as §1
# [2] = compound: NCC(=O)Nc1ccc(-n2nc(C(F)(F)F)cc2-c2ccc3c(ccc4ccccc43)c2)cc1 + CS(=O)(=O)N1CCN(Cc2cc3nc(-c4cccc5[nH]ncc45)nc(N4CCOCC4)c3s2)CC1 [Pictilisib] (partner 1 µM)
# Method in brief: as §1
# [3] = compound: NCC(=O)Nc1ccc(-n2nc(C(F)(F)F)cc2-c2ccc3c(ccc4ccccc43)c2)cc1 + C[C@]1(O)C[C@@H](c2nc(-c3ccc4ccc(-c5ccccc5)nc4c3)c3c(N)nccn32)C1 [Linsitinib] (partner 1 µM)
# Method in brief: as §1
Cell Line,relative viability (kb NB 142-70 + OSI-027; first compound 0.1 µM),relative viability (kb NB 142-70 + OSI-027; first compound 1 µM),relative viability (kb NB 142-70 + OSI-027; first compound 3.162 µM),relative viability ([1]; first compound 0.02 µM),relative viability ([1]; first compound 0.06325 µM),relative viability ([1]; first compound 0.2 µM),relative viability ([1]; first compound 0.6325 µM),relative viability ([1]; first compound 2 µM),relative viability ([2]; first compound 0.02 µM),relative viability ([2]; first compound 0.06325 µM),relative viability ([2]; first compound 0.2 µM),relative viability ([2]; first compound 0.6325 µM),relative viability ([2]; first compound 2 µM),relative viability ([3]; first compound 0.02 µM),relative viability ([3]; first compound 0.06325 µM),relative viability ([3]; first compound 0.2 µM),relative viability ([3]; first compound 0.6325 µM),relative viability ([3]; first compound 2 µM)
SK-LU-1,0.355,0.305,0.219,0.852,0.784,1.27,0.909,0.878,0.651,0.604,0.581,0.479,0.623,1.16,1.1,1.5,1.15,1.15
SK-MES-1,0.653,0.676,0.27,1.31,1.2,1.29,1.2,1.16,0.382,0.313,0.334,0.355,0.42,1.08,1.03,1.11,0.997,1.17
SW 1573,0.618,0.47,0.266,1.03,0.969,0.867,0.905,0.942,0.513,0.545,0.493,0.514,0.486,0.851,0.748,0.863,0.846,0.789
